Assay results published in patent US7759510B2, “Platinum complexes and methods of use” (University of South Florida, priority 2003, dated 2010).
Read-outs that look alike come from different tables or passages of the source.

How the values were obtained:
Stat3 = molecular target: T1, Stat3 (Mus musculus, UniProt P42227); assay: EMSA of nuclear extracts, Stat3 DNA-binding activity to hSIE probe; format: biochemical; conditions: in vitro
T1 construct: Nuclear extracts were prepared from NIH3T3/hEGFR cell that overexpress human epidermal growth factor (EGF) receptor and stimulated with EGF; endogenous in cells; host or cells: NIH3T3/hEGFR fibroblasts, EGF-stimulated (6 ng/ml, 15 min), nuclear extract
T1 sequence (P42227 whole entry): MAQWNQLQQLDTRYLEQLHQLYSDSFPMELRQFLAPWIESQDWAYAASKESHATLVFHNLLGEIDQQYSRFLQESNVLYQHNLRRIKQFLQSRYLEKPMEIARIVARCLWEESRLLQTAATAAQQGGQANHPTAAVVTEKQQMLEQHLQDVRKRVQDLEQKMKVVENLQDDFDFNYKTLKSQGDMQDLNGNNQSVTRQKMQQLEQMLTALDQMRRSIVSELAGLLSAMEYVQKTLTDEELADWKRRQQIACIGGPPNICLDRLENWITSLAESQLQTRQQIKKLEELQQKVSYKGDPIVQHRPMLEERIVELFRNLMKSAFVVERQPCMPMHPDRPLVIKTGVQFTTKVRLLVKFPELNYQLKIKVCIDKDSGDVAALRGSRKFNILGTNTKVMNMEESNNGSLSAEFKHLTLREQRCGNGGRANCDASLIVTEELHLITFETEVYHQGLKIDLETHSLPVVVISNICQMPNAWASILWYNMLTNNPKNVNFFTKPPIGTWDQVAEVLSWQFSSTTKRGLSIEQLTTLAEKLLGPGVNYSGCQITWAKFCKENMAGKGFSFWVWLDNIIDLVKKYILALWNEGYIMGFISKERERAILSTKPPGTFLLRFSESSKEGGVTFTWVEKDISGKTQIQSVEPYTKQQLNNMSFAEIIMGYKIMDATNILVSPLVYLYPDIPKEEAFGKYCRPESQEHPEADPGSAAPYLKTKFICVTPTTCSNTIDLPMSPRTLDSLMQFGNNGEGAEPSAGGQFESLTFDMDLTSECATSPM
Method: Nuclear Extract Preparation and Analysis by EMSA of HK-Designated Platinum Complexes.
Nuclear extracts were prepared from NIH3T3/hEGFR cell that overexpress human epidermal growth factor (EGF) receptor and stimulated with EGF (6 ng/ml) for 15 min. Nuclear extracts were pre-incubated with compounds for 30 min at room temperature prior to incubation with radiolabeled probe. The ^32P-labeled oligonucleotide probe used is hSIE (high affinity sis-inducible element, m67 variant, 5′-[…]-3′) (SEQ ID NO:1) that binds both Stat1 and Stat3.
Other platinum (IV) complexes were evaluated for inhibitory activity against STAT DNA-binding in vitro.

A549 cells = assay: MTT assay, percent survival of A549 cells; format: cell-based; conditions: A549; for IC50: Table 7, linear trend from percent survival vs. concentration data, read-out: Calculated IC 50 (uM concentration)
Method: 1. Prepare a suspension of A549 cells at 2×10^5 cells per mL in supplemented DMEM/F12 growth medium.
2. Plate 2×10^4 cells per well in a 96 well cell culture plate by adding 100 μL of stock suspension to each well.
3. For each platinum compound (already in solution), prepare a readily usable stock solution in DMEM/F12 medium.
4. For each compound generate triplicate trials of 0, 10, 20, 30, 40, 50, 60, and 70 μM concentration. This is achieved in situ by adding appropriate volumes of stock solution to each well along with the volume of untreated medium necessary to generate the desired concentration in a final volume of 200 μL.
5. Gently agitate plates to mix contents. Incubate at 37° C., 7% CO2 for 45 hours.
6. Add 20 μL of 5 mg/mL MTT solution (in PBS) to each well.
7. Gently agitate plates to mix contents and incubate an additional 3 hours to allow product development.
8. Remove plates from incubator and agitate to cause settling of formazan product.
9. Aspirate out liquid contents of each well using needle and syringe and discard.
10. Add 200 μL DMSO to each well to dissolve formazan product.
11. Agitate plates until all of the formazan product is in solution and no purple crystals remain on the bottom surface of the wells.
12. Read the absorbance of each well at […] using Varian software for Cary 50 UV-vis Spectrophotometer with fiber optic probe accessory.
(§1) MTT assays are used for the quantitative determination of cellular proliferation and activation and for the quantitation of in vitro tumor cell sensitivity to anti-cancer compounds. The assay is based on the cleavage of the yellow tetrazolium salt MTT into purple colored formazan by metabolically active cells. Solubilized formazan product can be photometrically quantitated using an ELISA plate reader. A decrease in the number of living cells results in a decrease in total metabolic activity which leads to a decrease in color formation. Platinum complexes of the present invention were tested in MTT assays using A549 cells to determine anti-cancer cell activity. […] FIGS. 1, 2, and 4 show percent survival versus platinum complex concentration in graphical form.
as §1, with “FIGS. 8, 9,” for “FIGS. 1, 2,”, “and 11” for “and 4”

[NH2][Pt]([NH2])([Cl])([Cl])([Br])[N+](=O)[O-] [CPA-10]
Disruption of Stat3 activity / ability to bind its consensus binding sequence (Stat3): strongly disrupt Stat3 activity

O=C1C(Br)=CC2=C(c3ccccc3C(=O)[O-])C3C=C(Br)C([O-])=C(Br)C3OC2=C1Br.[NH2][Pt]([NH2])([Cl])([Cl])[N+](=O)[O-] (centres unmarked) [CPA-30]
Disruption of Stat3 activity / ability to bind its consensus binding sequence (Stat3): strongly disrupt Stat3 activity

CO[C@H]1O[C@H](CO)[C@@H](O)[C@H](O)[C@@H]1O [Methyl alpha-D-Mannopyranoside]
IC50 (A549 cells; Homo sapiens): 50.1 µM | Average Absorbance (A549 cells; Table 6, 10 μM): 2.4582 | Percent Survival (A549 cells; Table 6, 10 μM): 104.1125% | Average Absorbance (A549 cells; Table 6, 20 μM): 2.4610 | Percent Survival (A549 cells; Table 6, 20 μM): 104.2311% | Average Absorbance (A549 cells; Table 6, 30 μM): 2.1544 | Percent Survival (A549 cells; Table 6, 30 μM): 91.2456% | Average Absorbance (A549 cells; Table 6, 40 μM): 1.1005 | Percent Survival (A549 cells; Table 6, 40 μM): 46.6096% | Average Absorbance (A549 cells; Table 6, 50 μM): 0.6631 | Percent Survival (A549 cells; Table 6, 50 μM): 28.0844% | Average Absorbance (A549 cells; Table 6, 60 μM): 0.9420 | Percent Survival (A549 cells; Table 6, 60 μM): 39.8967% | Average Absorbance (A549 cells; Table 6, 70 μM): 0.8479 | Percent Survival (A549 cells; Table 6, 70 μM): 35.9112% | Average Absorbance (A549 cells; Table 8, 10 μM): 2.6117 | Percent Survival (A549 cells; Table 8, 10 μM): 106.9098% | Average Absorbance (A549 cells; Table 8, 20 μM): 2.4353 | Percent Survival (A549 cells; Table 8, 20 μM): 99.6889% | Average Absorbance (A549 cells; Table 8, 30 μM): 1.7315 | Percent Survival (A549 cells; Table 8, 30 μM): 70.8789% | Average Absorbance (A549 cells; Table 8, 40 μM): 0.6173 | Percent Survival (A549 cells; Table 8, 40 μM): 25.2691% | Average Absorbance (A549 cells; Table 8, 50 μM): 0.4370 | Percent Survival (A549 cells; Table 8, 50 μM): 17.8886% | Average Absorbance (A549 cells; Table 8, 60 μM): 0.5017 | Percent Survival (A549 cells; Table 8, 60 μM): 20.5371% | Average Absorbance (A549 cells; Table 8, 70 μM): 0.5339 | Percent Survival (A549 cells; Table 8, 70 μM): 21.8552%

CC(=O)N[C@H]1C(O)O[C@H](CO)[C@@H](O)[C@@H]1O (some centres unmarked) [N-acetyl glucosamine]
Average Absorbance (A549 cells; Table 9, 10 μM): 0.6179 | Percent Survival (A549 cells; Table 9, 10 μM): 96.89% | Average Absorbance (A549 cells; Table 9, 20 μM): 0.378 | Percent Survival (A549 cells; Table 9, 20 μM): 59.27% | Average Absorbance (A549 cells; Table 9, 30 μM): 0.1735 | Percent Survival (A549 cells; Table 9, 30 μM): 27.21% | Average Absorbance (A549 cells; Table 9, 40 μM): 0.02397 | Percent Survival (A549 cells; Table 9, 40 μM): 3.758% | Average Absorbance (A549 cells; Table 9, 50 μM): 0.0397 | Percent Survival (A549 cells; Table 9, 50 μM): 6.226% | Average Absorbance (A549 cells; Table 9, 60 μM): 0.05523 | Percent Survival (A549 cells; Table 9, 60 μM): 8.662% | Average Absorbance (A549 cells; Table 9, 70 μM): 0.01897 | Percent Survival (A549 cells; Table 9, 70 μM): 2.974%

Cn1c(=O)c2[nH]cnc2n(C)c1=O [Theophylline]
Average Absorbance (A549 cells; Table 9, 10 μM): 0.5681 | Percent Survival (A549 cells; Table 9, 10 μM): 89.1% | Average Absorbance (A549 cells; Table 9, 20 μM): 0.3864 | Percent Survival (A549 cells; Table 9, 20 μM): 60.6% | Average Absorbance (A549 cells; Table 9, 30 μM): 0.2159 | Percent Survival (A549 cells; Table 9, 30 μM): 33.86% | Average Absorbance (A549 cells; Table 9, 40 μM): 0.0585 | Percent Survival (A549 cells; Table 9, 40 μM): 9.174% | Average Absorbance (A549 cells; Table 9, 50 μM): 0.0047 | Percent Survival (A549 cells; Table 9, 50 μM): 0.7371% | Average Absorbance (A549 cells; Table 9, 60 μM): 0.03173 | Percent Survival (A549 cells; Table 9, 60 μM): 4.976% | Average Absorbance (A549 cells; Table 9, 70 μM): −0.001567 | Percent Survival (A549 cells; Table 9, 70 μM): −0.2457%

Caffeine
Average Absorbance (A549 cells; Table 9, 10 μM): 0.4606 | Percent Survival (A549 cells; Table 9, 10 μM): 72.24% | Average Absorbance (A549 cells; Table 9, 20 μM): 0.3935 | Percent Survival (A549 cells; Table 9, 20 μM): 61.71% | Average Absorbance (A549 cells; Table 9, 30 μM): 0.2016 | Percent Survival (A549 cells; Table 9, 30 μM): 31.62% | Average Absorbance (A549 cells; Table 9, 40 μM): 0.08893 | Percent Survival (A549 cells; Table 9, 40 μM): 13.95% | Average Absorbance (A549 cells; Table 9, 50 μM): 0.04983 | Percent Survival (A549 cells; Table 9, 50 μM): 7.815% | Average Absorbance (A549 cells; Table 9, 60 μM): 0.06103 | Percent Survival (A549 cells; Table 9, 60 μM): 9.571% | Average Absorbance (A549 cells; Table 9, 70 μM): 0.05103 | Percent Survival (A549 cells; Table 9, 70 μM): 8.003%

Methylene blue
Average Absorbance (A549 cells; Table 6, 10 μM): 2.3750 | Percent Survival (A549 cells; Table 6, 10 μM): 100.5887% | Average Absorbance (A549 cells; Table 6, 20 μM): 2.2927 | Percent Survival (A549 cells; Table 6, 20 μM): 97.1030% | Average Absorbance (A549 cells; Table 6, 30 μM): 2.2510 | Percent Survival (A549 cells; Table 6, 30 μM): 95.3369% | Average Absorbance (A549 cells; Table 6, 40 μM): 1.5702 | Percent Survival (A549 cells; Table 6, 40 μM): 66.5029% | Average Absorbance (A549 cells; Table 6, 50 μM): 0.8542 | Percent Survival (A549 cells; Table 6, 50 μM): 36.1781% | Average Absorbance (A549 cells; Table 6, 60 μM): 1.1911 | Percent Survival (A549 cells; Table 6, 60 μM): 50.4468% | Average Absorbance (A549 cells; Table 6, 70 μM): 0.9505 | Percent Survival (A549 cells; Table 6, 70 μM): 40.2567% | IC50 (A549 cells): 56.4 µM | Average Absorbance (A549 cells; Table 8, 10 μM): 2.5299 | Percent Survival (A549 cells; Table 8, 10 μM): 103.5613% | Average Absorbance (A549 cells; Table 8, 20 μM): 2.1653 | Percent Survival (A549 cells; Table 8, 20 μM): 88.6365% | Average Absorbance (A549 cells; Table 8, 30 μM): 1.6536 | Percent Survival (A549 cells; Table 8, 30 μM): 67.6900% | Average Absorbance (A549 cells; Table 8, 40 μM): 0.7522 | Percent Survival (A549 cells; Table 8, 40 μM): 30.7913% | Average Absorbance (A549 cells; Table 8, 50 μM): 0.6302 | Percent Survival (A549 cells; Table 8, 50 μM): 25.7972% | Average Absorbance (A549 cells; Table 8, 60 μM): 0.7701 | Percent Survival (A549 cells; Table 8, 60 μM): 31.5240% | Average Absorbance (A549 cells; Table 8, 70 μM): 0.7481 | Percent Survival (A549 cells; Table 8, 70 μM): 30.6234%

Safranin
Average Absorbance (A549 cells; Table 9, 10 μM): 0.4933 | Percent Survival (A549 cells; Table 9, 10 μM): 77.35% | Average Absorbance (A549 cells; Table 9, 20 μM): 0.4394 | Percent Survival (A549 cells; Table 9, 20 μM): 68.9% | Average Absorbance (A549 cells; Table 9, 30 μM): 0.2197 | Percent Survival (A549 cells; Table 9, 30 μM): 34.46% | Average Absorbance (A549 cells; Table 9, 40 μM): 0.07453 | Percent Survival (A549 cells; Table 9, 40 μM): 11.69% | Average Absorbance (A549 cells; Table 9, 50 μM): 0.05293 | Percent Survival (A549 cells; Table 9, 50 μM): 8.301% | Average Absorbance (A549 cells; Table 9, 60 μM): 0.0432 | Percent Survival (A549 cells; Table 9, 60 μM): 6.775% | Average Absorbance (A549 cells; Table 9, 70 μM): 0.05447 | Percent Survival (A549 cells; Table 9, 70 μM): 8.541%
